Where a SMILES comes first, the peptide text is derived from it. [ ]: non-standard residue; d: D form. The star is where a group is joined. X1 = NC(=O)CCOCCOCCOCCOCCOCCOCCNC(=O)COCC(=O)NCCCOCCOCCOCCCN*; dPhe(3-Cl) = N[C@H](Cc1cccc(Cl)c1)C(=O)O; X2 = NC(=O)COCC(=O)NCCCOCCOCCOCCCN*; d2Thi = N[C@H](Cc1cccs1)C(=O)O; Nle = CCCC[C@H](N)C(=O)O
Assay: Pharmacokinetics in rats after intravenous bolus injection (systemic clearance)
Format: in vivo
Details: rat, plasma, 0.2 mg FB/kg, adult male Sprague-Dawley rats, i.v. bolus, dose 0.20 mg FB/kg, read-out: CL (ml/kg/min) Average
Procedure, shortened: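 Systemic clearance from noncompartmental analysis as dose per kg over trapezoidal AUC extrapolated to infinity, mean and SD across animals. Plasma (K2EDTA) levels by LC/MS/MS after single IV jugular-vein bolus, 0.1-1.0 mg/kg, in 3-4 cannulated male Sprague-Dawley rats.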

clearance [mL/kg/min]	Compound
0.22	CCCC[C@H](NC(=O)[C@H](CCC(=O)O)NC(=O)[C@H](CC(=O)O)NC(=O)[C@H](CO)NC(=O)[C@H](Cc1ccccc1)NC(=O)[C@H](CO)NC(=O)CNC(=O)[C@H](CC(=O)O)NC(=O)CNC(=O)[C@@H](N)Cc1cnc[nH]1)C(=O)N[C@H](Cc1ccccc1)C(=O)N[C@H](C(=O)N[C@H](C(=O)N[C@@H](CC(C)C)C(=O)N[C@@H](CC(=O)O)C(=O)N[C@@H](CC(C)C)C(=O)N[C@@H](CC(C)C)C(=O)N[C@@H](C)C(=O)N[C@@H](C)C(=O)N[C@@H](CCCNC(=N)N)C(=O)N[C@@H](CC(=O)O)C(=O)N[C@@H](Cc1ccccc1)C(=O)N[C@H](C(=O)N[C@@H](CC(N)=O)C(=O)N[C@@H](Cc1c[nH]c2ccccc12)C(=O)N[C@@H](CC(C)C)C(=O)N[C@H](C(=O)N[C@@H](CCC(N)=O)C(=O)N[C@H](C(=O)N[C@@H](CCCCN)C(=O)N[C@H](C(=O)N[C@H](C(=O)N[C@@H](CC(=O)O)C(=O)O)[C@@H](C)O)[C@@H](C)CC)[C@@H](C)O)[C@@H](C)CC)[C@@H](C)CC)[C@@H](C)CC)[C@@H](C)O [Compound 59, [Gly2,Nle10,D-Phe11,Leu16] hGLP-2(1-33)-OH] (H-HGDGSFSDE[Nle][dF]TILDLLAARDFINWLIQTKITD-OH)
0.29	CCCC[C@H](NC(=O)[C@H](CCC(=O)O)NC(=O)[C@H](CC(=O)O)NC(=O)[C@H](CO)NC(=O)[C@H](Cc1ccccc1)NC(=O)[C@H](CO)NC(=O)CNC(=O)[C@H](CC(=O)O)NC(=O)CNC(=O)[C@@H](N)Cc1c[nH]cn1)C(=O)N[C@H](Cc1ccccc1)C(=O)N[C@H](C(=O)N[C@H](C(=O)N[C@@H](CC(C)C)C(=O)N[C@@H](CC(=O)O)C(=O)N[C@@H](Cc1ccccc1)C(=O)N[C@@H](CC(C)C)C(=O)N[C@@H](C)C(=O)N[C@@H](C)C(=O)N[C@@H](CCCNC(=N)N)C(=O)N[C@@H](CC(=O)O)C(=O)N[C@@H](Cc1ccccc1)C(=O)N[C@H](C(=O)N[C@@H](CC(N)=O)C(=O)N[C@@H](Cc1c[nH]c2ccccc12)C(=O)N[C@@H](CC(C)C)C(=O)N[C@H](C(=O)N[C@@H](CCC(N)=O)C(=O)N[C@H](C(=O)N[C@@H](CCCCN)C(=O)N[C@H](C(=O)N[C@H](C(=O)N[C@@H](CC(=O)O)C(=O)NCCCOCCOCCOCCCNC(=O)COCC(N)=O)[C@@H](C)O)[C@@H](C)CC)[C@@H](C)O)[C@@H](C)CC)[C@@H](C)CC)[C@@H](C)CC)[C@@H](C)O [Compound 60, [Gly2,Nle10,D-Phe11,Phe16] hGLP-2(1-33)-NH—CH2—((CH2)2O)3—(CH2)3—NH—C(O)—CH2—O—CH2—C(O)—NH2] (H-HGDGSFSDE[Nle][dF]TILDFLAARDFINWLIQTKITD-X2)
0.16	CCCC[C@H](NC(=O)[C@H](CCC(=O)O)NC(=O)[C@H](CC(=O)O)NC(=O)[C@H](CO)NC(=O)[C@H](Cc1ccccc1)NC(=O)[C@H](CO)NC(=O)CNC(=O)[C@H](CC(=O)O)NC(=O)CNC(=O)[C@@H](N)Cc1c[nH]cn1)C(=O)N[C@H](Cc1ccccc1)C(=O)N[C@H](C(=O)N[C@H](C(=O)N[C@@H](CC(C)C)C(=O)N[C@@H](CC(=O)O)C(=O)N[C@@H](Cc1ccccc1)C(=O)N[C@@H](CC(C)C)C(=O)N[C@@H](C)C(=O)N[C@@H](C)C(=O)N[C@@H](CCCNC(=N)N)C(=O)N[C@@H](CC(=O)O)C(=O)N[C@@H](Cc1ccccc1)C(=O)N[C@H](C(=O)N[C@@H](CC(N)=O)C(=O)N[C@@H](Cc1c[nH]c2ccccc12)C(=O)N[C@@H](CC(C)C)C(=O)N[C@H](C(=O)N[C@@H](CCC(N)=O)C(=O)N[C@H](C(=O)N[C@@H](CCCCN)C(=O)N[C@H](C(=O)N[C@H](C(=O)N[C@@H](CC(=O)O)C(=O)NCCCOCCOCCOCCCNC(=O)COCC(=O)NCCOCCOCCOCCOCCOCCOCCC(N)=O)[C@@H](C)O)[C@@H](C)CC)[C@@H](C)O)[C@@H](C)CC)[C@@H](C)CC)[C@@H](C)CC)[C@@H](C)O [Compound 61, [Gly2,Nle10,D-Phe11,Phe16] hGLP-2(1-33)-NH—CH2—((CH2)2O)3—(CH2)3—NH—C(O)—CH2—O—CH2—C(O)—NH—((CH2)2O)6—(CH2)2—C(O)—NH2] (H-HGDGSFSDE[Nle][dF]TILDFLAARDFINWLIQTKITD-X1)
0.24	CCCC[C@H](NC(=O)[C@H](CCC(=O)O)NC(=O)[C@H](CC(=O)O)NC(=O)[C@H](CO)NC(=O)[C@H](Cc1ccccc1)NC(=O)[C@H](CO)NC(=O)CNC(=O)[C@H](CC(=O)O)NC(=O)CNC(=O)[C@@H](N)Cc1c[nH]cn1)C(=O)N[C@H](Cc1ccccc1)C(=O)N[C@H](C(=O)N[C@H](C(=O)N[C@@H](CC(C)C)C(=O)N[C@@H](CC(=O)O)C(=O)N[C@@H](Cc1ccccc1)C(=O)N[C@@H](CC(C)C)C(=O)N[C@@H](C)C(=O)N[C@@H](C)C(=O)N[C@@H](CCCNC(=N)N)C(=O)N[C@@H](CC(=O)O)C(=O)N[C@@H](Cc1ccccc1)C(=O)N[C@H](C(=O)N[C@@H](CC(N)=O)C(=O)N[C@@H](Cc1c[nH]c2ccccc12)C(=O)N[C@@H](CC(C)C)C(=O)N[C@H](C(=O)N[C@@H](CCC(N)=O)C(=O)N[C@H](C(=O)N[C@@H](CCCCN)C(=O)N[C@H](C(=O)N[C@H](C(=O)N[C@@H](CC(=O)O)C(N)=O)[C@@H](C)O)[C@@H](C)CC)[C@@H](C)O)[C@@H](C)CC)[C@@H](C)CC)[C@@H](C)CC)[C@@H](C)O [Compound 63, [Gly2,Nle10,D-Phe11,Phe16] hGLP-2(1-33)-NH2] (H-HGDGSFSDE[Nle][dF]TILDFLAARDFINWLIQTKITD-NH2)
0.15	CCCC[C@H](NC(=O)[C@H](CCC(=O)O)NC(=O)[C@H](CC(=O)O)NC(=O)[C@H](CO)NC(=O)[C@H](Cc1ccccc1)NC(=O)[C@H](CO)NC(=O)CNC(=O)[C@H](CC(=O)O)NC(=O)CNC(=O)[C@@H](N)Cc1c[nH]cn1)C(=O)N[C@H](Cc1ccccc1)C(=O)N[C@H](C(=O)N[C@H](C(=O)N[C@@H](CC(C)C)C(=O)N[C@@H](CC(=O)O)C(=O)N[C@@H](Cc1ccccc1)C(=O)N[C@@H](CC(C)C)C(=O)N[C@@H](C)C(=O)N[C@@H](C)C(=O)N[C@@H](CCCNC(=N)N)C(=O)N[C@@H](CC(=O)O)C(=O)N[C@@H](Cc1ccccc1)C(=O)N[C@H](C(=O)N[C@@H](CC(N)=O)C(=O)N[C@@H](Cc1c[nH]c2ccccc12)C(=O)N[C@@H](CC(C)C)C(=O)N[C@H](C(=O)N[C@@H](CCC(N)=O)C(=O)N[C@H](C(=O)N[C@@H](CCCCN)C(=O)N[C@H](C(=O)N[C@H](C(=O)N[C@@H](CC(=O)O)C(=O)O)[C@@H](C)O)[C@@H](C)CC)[C@@H](C)O)[C@@H](C)CC)[C@@H](C)CC)[C@@H](C)CC)[C@@H](C)O [Compound 64, [Gly2,Nle10,D-Phe11,Phe16] hGLP-2(1-33)-OH] (H-HGDGSFSDE[Nle][dF]TILDFLAARDFINWLIQTKITD-OH)
0.12	CCCC[C@H](NC(=O)[C@H](CCC(=O)O)NC(=O)[C@H](CC(=O)O)NC(=O)[C@H](CO)NC(=O)[C@H](Cc1ccccc1)NC(=O)[C@H](CO)NC(=O)CNC(=O)[C@H](CC(=O)O)NC(=O)CNC(=O)[C@@H](N)Cc1c[nH]cn1)C(=O)N[C@H](Cc1cccc(Cl)c1)C(=O)N[C@H](C(=O)N[C@H](C(=O)N[C@@H](CC(C)C)C(=O)N[C@@H](CC(=O)O)C(=O)N[C@@H](Cc1ccccc1)C(=O)N[C@@H](CC(C)C)C(=O)N[C@@H](C)C(=O)N[C@@H](C)C(=O)N[C@@H](CCCNC(=N)N)C(=O)N[C@@H](CC(=O)O)C(=O)N[C@@H](Cc1ccccc1)C(=O)N[C@H](C(=O)N[C@@H](CC(N)=O)C(=O)N[C@@H](Cc1c[nH]c2ccccc12)C(=O)N[C@@H](CC(C)C)C(=O)N[C@H](C(=O)N[C@@H](CCC(N)=O)C(=O)N[C@H](C(=O)N[C@@H](CCCCN)C(=O)N[C@H](C(=O)N[C@H](C(=O)N[C@@H](CC(=O)O)C(N)=O)[C@@H](C)O)[C@@H](C)CC)[C@@H](C)O)[C@@H](C)CC)[C@@H](C)CC)[C@@H](C)CC)[C@@H](C)O [Compound 66, [Gly2,Nle10,D-3-Cpa11,Phe16] hGLP-2(1-33)-NH2] (H-HGDGSFSDE[Nle][dPhe(3-Cl)]TILDFLAARDFINWLIQTKITD-NH2)
0.15	CCCC[C@H](NC(=O)[C@H](CCC(=O)O)NC(=O)[C@H](CC(=O)O)NC(=O)[C@H](CO)NC(=O)[C@H](Cc1ccccc1)NC(=O)[C@H](CO)NC(=O)CNC(=O)[C@H](CC(=O)O)NC(=O)CNC(=O)[C@@H](N)Cc1c[nH]cn1)C(=O)N[C@H](Cc1cccs1)C(=O)N[C@H](C(=O)N[C@H](C(=O)N[C@@H](CC(C)C)C(=O)N[C@@H](CC(=O)O)C(=O)N[C@@H](Cc1ccccc1)C(=O)N[C@@H](CC(C)C)C(=O)N[C@@H](C)C(=O)N[C@@H](C)C(=O)N[C@@H](CCCNC(=N)N)C(=O)N[C@@H](CC(=O)O)C(=O)N[C@@H](Cc1ccccc1)C(=O)N[C@H](C(=O)N[C@@H](CC(N)=O)C(=O)N[C@@H](Cc1c[nH]c2ccccc12)C(=O)N[C@@H](CC(C)C)C(=O)N[C@H](C(=O)N[C@@H](CCC(N)=O)C(=O)N[C@H](C(=O)N[C@@H](CCCCN)C(=O)N[C@H](C(=O)N[C@H](C(=O)N[C@@H](CC(=O)O)C(N)=O)[C@@H](C)O)[C@@H](C)CC)[C@@H](C)O)[C@@H](C)CC)[C@@H](C)CC)[C@@H](C)CC)[C@@H](C)O [Compound 68, [Gly2,Nle10,D-Thi11,Phe16] hGLP-2(1-33)-NH2] (H-HGDGSFSDE[Nle][d2Thi]TILDFLAARDFINWLIQTKITD-NH2)
9.9	CC[C@H](C)[C@H](NC(=O)[C@H](Cc1ccccc1)NC(=O)[C@H](CC(=O)O)NC(=O)[C@H](CCCNC(=N)N)NC(=O)[C@H](C)NC(=O)[C@H](C)NC(=O)[C@H](CC(C)C)NC(=O)[C@H](CC(N)=O)NC(=O)[C@H](CC(=O)O)NC(=O)[C@H](CC(C)C)NC(=O)[C@@H](NC(=O)[C@@H](NC(=O)[C@H](CC(N)=O)NC(=O)[C@H](CCSC)NC(=O)[C@H](CCC(=O)O)NC(=O)[C@H](CC(=O)O)NC(=O)[C@H](CO)NC(=O)[C@H](Cc1ccccc1)NC(=O)[C@H](CO)NC(=O)CNC(=O)[C@H](CC(=O)O)NC(=O)CNC(=O)[C@@H](N)Cc1c[nH]cn1)[C@@H](C)O)[C@@H](C)CC)C(=O)N[C@@H](CC(N)=O)C(=O)N[C@@H](Cc1c[nH]c2ccccc12)C(=O)N[C@@H](CC(C)C)C(=O)N[C@H](C(=O)N[C@@H](CCC(N)=O)C(=O)N[C@H](C(=O)N[C@@H](CCCCN)C(=O)N[C@H](C(=O)N[C@H](C(=O)N[C@@H](CC(=O)O)C(=O)O)[C@@H](C)O)[C@@H](C)CC)[C@@H](C)O)[C@@H](C)CC [teduglutide, [Gly2]hGLP 2, reference compound]

Same assay, conditions: rat, plasma, adult male Sprague-Dawley rats, i.v. bolus, dose 1.0 mg FB/kg, read-out: CL (ml/kg/min) Average

clearance [mL/kg/min]	Compound
8	CC[C@H](C)[C@H](NC(=O)[C@H](Cc1ccccc1)NC(=O)[C@H](CC(=O)O)NC(=O)[C@H](CCCNC(=N)N)NC(=O)[C@H](C)NC(=O)[C@H](C)NC(=O)[C@H](CC(C)C)NC(=O)[C@H](CC(N)=O)NC(=O)[C@H](CC(=O)O)NC(=O)[C@H](CC(C)C)NC(=O)[C@@H](NC(=O)[C@@H](NC(=O)[C@H](CC(N)=O)NC(=O)[C@H](CCSC)NC(=O)[C@H](CCC(=O)O)NC(=O)[C@H](CC(=O)O)NC(=O)[C@H](CO)NC(=O)[C@H](Cc1ccccc1)NC(=O)[C@H](CO)NC(=O)CNC(=O)[C@H](CC(=O)O)NC(=O)CNC(=O)[C@@H](N)Cc1c[nH]cn1)[C@@H](C)O)[C@@H](C)CC)C(=O)N[C@@H](CC(N)=O)C(=O)N[C@@H](Cc1c[nH]c2ccccc12)C(=O)N[C@@H](CC(C)C)C(=O)N[C@H](C(=O)N[C@@H](CCC(N)=O)C(=O)N[C@H](C(=O)N[C@@H](CCCCN)C(=O)N[C@H](C(=O)N[C@H](C(=O)N[C@@H](CC(=O)O)C(=O)O)[C@@H](C)O)[C@@H](C)CC)[C@@H](C)O)[C@@H](C)CC [teduglutide, [Gly2]hGLP 2, reference compound]

Source: patent publication US8580918B2, “Peptidic GLP-2 agonists” (Ferring B.V., priority 2009, dated 2013)
